Measurements taken from the supplement of paper PMC10307832.

Key:
Test in all cases: relative viability (nuclei count vs DMSO), 5 days (fraction); higher = more cells survive
[1] = compound: C/C(=N\NC(=S)N1CCC1)/C2=CC=CC=N2 + CCNC(=O)c1noc(-c2cc(C(C)C)c(O)cc2O)c1-c1ccc(CN2CCOCC2)cc1 [Luminespib] (partner 0.01 µM)
Outline: (§1)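 Lung cancer cell lines in 1536-well plates got either a single drug or a fixed anchor-drug dose together with five library-drug doses (not always all listed) in √10 steps, by pin tool, on the day after seeding. Nuclei were counted after 5 days, and relative viability is the treated-to-vehicle ratio of nuclei counts. Values are medians of duplicate plates.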

[2] = compound: C/C(=N\NC(=S)N1CCC1)/C2=CC=CC=N2 + C[C@]1(O)C[C@@H](c2nc(-c3ccc4ccc(-c5ccccc5)nc4c3)c3c(N)nccn32)C1 [Linsitinib] (partner 1 µM)
Outline: as §1

[3] = compound: C/C(=N\NC(=S)N1CCC1)/C2=CC=CC=N2 + CS(=O)(=O)CCNCc1ccc(-c2ccc3ncnc(Nc4ccc(OCc5cccc(F)c5)c(Cl)c4)c3c2)o1 [Lapatinib] (partner 2 µM)
Outline: as §1

[4] = compound: C/C(=N\NC(=S)N1CCC1)/C2=CC=CC=N2 + COc1cccc2cc(-c3nc([C@H]4CC[C@H](C(=O)O)CC4)n4ncnc(N)c34)[nH]c12 [OSI-027] (partner 0.5 µM)
Outline: as §1

Cell Line	relative viability ([1]; first compound 0.05 µM)	relative viability ([1]; first compound 0.1581 µM)	relative viability ([1]; first compound 0.5 µM)	relative viability ([1]; first compound 1.581 µM)	relative viability ([1]; first compound 5 µM)	relative viability ([2]; first compound 0.05 µM)	relative viability ([2]; first compound 0.1581 µM)	relative viability ([2]; first compound 0.5 µM)	relative viability ([2]; first compound 1.581 µM)	relative viability ([2]; first compound 5 µM)	relative viability ([3]; first compound 0.05 µM)	relative viability ([3]; first compound 0.1581 µM)	relative viability ([3]; first compound 0.5 µM)	relative viability ([3]; first compound 1.581 µM)	relative viability ([3]; first compound 5 µM)	relative viability ([4]; first compound 0.05 µM)	relative viability ([4]; first compound 0.1581 µM)	relative viability ([4]; first compound 0.5 µM)	relative viability ([4]; first compound 1.581 µM)	relative viability ([4]; first compound 5 µM)
SK-MES-1	0.169	0.155	0.175	0.152	0.189	0.269	0.236	0.225	0.205	0.183	0.301	0.293	0.213	0.185	0.2	0.197	0.182	0.157	0.137	0.186
NCI-H1666	0.386	0.391	0.347	0.311	0.287	0.213	0.244	0.231	0.22	0.231	0.229	0.27	0.273	0.198	0.228	0.396	0.41	0.383	0.354	0.358
NCI-H1355	0.176	0.179	0.192	0.167	0.173	0.259	0.632	0.193	0.182	0.181	0.203	0.238	0.205	0.167	0.18	0.201	0.213	0.208	0.18	0.178
HCC-827	0.254	0.468	0.163	0.124	0.188	0.716	0.968	0.338	0.3	0.187	0.161	0.168	0.201	0.211	0.19	0.288	0.281	0.156	0.176	0.168
HARA	0.124	0.121	0.0663	0.0648	0.0838	0.212	0.0896	0.163	0.109	0.08	0.102	0.115	0.155	0.0859	0.0828	0.0966	0.0611	0.0659	0.0562	0.0621
NCI-H322M	0.314	0.327	0.289	0.263	0.309	0.291	0.876	0.197	0.245	0.319	0.258	0.281	0.222	0.243	0.301	0.325	0.351	0.321	0.288	0.337
NCI-H2347	0.263	0.238	0.213	0.251	0.235	0.295	0.372	0.325	0.255	0.314	0.401	0.394	0.324	0.294	0.541	0.242	0.208	0.255	0.234	0.218
NCI-H1975	0.118	0.148	0.206	0.107	0.151	0.157	0.151	0.145	0.158	0.163	0.132	0.151	0.147	0.13	0.15	0.137	0.119	0.116	0.105	0.11
